Laboratory results: US10875829B1, “Azetidine derivatives useful as modulators of cortical catecholaminergic neurotransmission” (Integrative Research Laboratories Sweden AB, priority 2016, dated 2020)
Where a name gives a salt, the structure may show the parent alone. Read-outs that look alike come from different tables or passages of the source. Marks after values point to notes of the source that are not given here.

Tests used:
NA, DA and 5-HT = test: In vivo brain microdialysis: extracellular monoamines in striatum and frontal cortex; design: species or system Sprague-Dawley rats; settings: for response vs control in vivo at 50 µmol/kg / response vs control in vivo at 16.7 µmol/kg: Rattus norvegicus, sc
From the text: The microdialysis technique is a well-established technique for measuring extracellular levels of neurotransmitters (Ungerstedt, J Int Med, 1991, 230; 365-73). The microdialysis technique was used to measure the effect of compounds disclosed herein upon the efflux of monoamine transmitters (NA, DA and 5-HT) in striatum and frontal cortex in conscious, freely moving rats.
Male Sprague-Dawley rats weighing 280-320 g were used throughout the experiments. Before the experiment the animals were housed in groups, maximum five animals in each cage, with free access to water and food. The animals were housed at least one week prior to surgery and use in the experiments.
A modified version (Waters et al., J Neural Transm Gen Sect, 1994, 98(1); 39-55) of the !-shaped probe (Santiago and Westerink, N-S Arch Pharmacol, 1990, 342; 407-14) with the AN69 polyacrylonitrile/sodium methyl sulfonate copolymer (HOSPAL; o.d/i.d. 310/220 μm: dialysis membrane (Gambro, Lund, Sweden) was used in the microdialysis experiments. In the dorsal striatum, probes with an exposed length of 3 mm of dialysis membrane were used and in the prefrontal cortex the corresponding length was 2.5 mm. The rats were operated under isoflurane inhalation anesthesia while mounted into a Kopf stereotaxic instrument. Coordinates were calculated relative to bregma; dorsal striatum AP+1.0, ML±2.6, DV 6.2; Pf cortex, AP+3.2, ML±1.2, DV −4.0 8°, according to Paxinos and Watson (New York, Academic Press, 1986; FIG. 8 and FIG. 14). The dialysis probe was positioned in a burr hole under stereotaxic guidance and cemented with phosphatine dental cement (DAB Dental).
The rats were housed individually in cages for 48 h before the dialysis experiments, allowing them to recover from surgery and minimizing the risk of drug interactions with the anesthetics during the following experiments. During this period the rats had free access to food and water. On the day of the experiment the rats were connected to a micro-perfusion pump via a swivel and were replaced in the cage where they could move freely within its confinements. The perfusion medium was a Ringer's solution containing (in mmol/l): NaCl; 140, CaCl2); 1.2, KCl; 3.0, MgCl2; 1.0 (Moghaddam and Bunney. Neurochem., 1989, 53; 652-4). The pump was set to a perfusion speed of 2 μl/min and 40 μl sample volume were collected every 20 min.
The rats were perfused for at least 40 min before sampling began. Five fractions of each 20 min were collected and the last three were used for the establishment of the baseline. After collection of baseline fractions, the pharmacological challenge to the dialysis experiment started. Test compounds were administrated by injection (s.c.) in a volume of 5 ml/kg, with 0.9% NaCl (saline) as vehicle.
The analytical method were based on two chromatographic separations dedicated for amines or acids. Two chromatographic systems shared a common auto injector with a 10-port valve and two sample loops for simultaneous injection on the two systems.
The acids were separated by reversed phase chromatography while the amines were separated by reversed phase ion pairing chromatography preceded by a reverse phase separation in a column switching configuration. Three separation columns (Luna C18 (2), dp 3 μm, 2 mm i.d., Phenomenex) of different lengths were used. Electrochemical detection was accomplished on glassy carbon electrodes (MF-1000, Bioanalytical Systems, Inc.)
The aqueous mobile phase (0.6 ml/min) for the acid system contained citric acid (40 mM, dipotassium hydrogen phosphate 10 mM, methanol 8-11% (v/v) and EDTA 0.1 mM. Column length was 30 mm and detection potential relative to Ag/AgCl reference was 0.74V.
The aqueous ion pairing mobile phase (0.4 ml/min) for the amine system contained citric acid 5 mM, sodium citrate 10 mM, acetone 9% (v/v), tetrahydrofurane 3% (v/v), dodecane sulphonic acid 0.025 mM, and EDTA 0.1 mM. Column length was 50 mm and the preceding column was 20 mm. […]

DOPAC = test: In vivo neurochemistry: tissue levels of DOPAC in brain regions; design: species or system rats; settings: 100 μmol/kg s.c., 65 min before sacrifice, control saline, n=5
From the text: The change in turnover of dopamine in the terminal areas of the ascending dopaminergic projections of the mammalian brain can be illustrated by measuring of changes in biochemical indices in the brain e.g. changes in concentrations of dopamine metabolites such as 3,4-dihydroxyphenyl-acetic acid (DOPAC) in the striatum and frontal cortex.
The measurement of the tissue content of DOPAC is well established in the field of research since the 1960's. In short, male Sprague-Dawley rats are administered the test compound 60 minutes prior to decapitation. The brain is rapidly taken out and dissected. The striatum is rapidly frozen and subsequently quantitatively analyzed with respect to its content of DOPAC by means of HPLC and electrochemical detection. The number of animals used for each test compound/vehicle is 5/group.
After the behavioural activity sessions, the rats were decapitated and their brains rapidly taken out and put on an ice-cold petri-dish. The brains were dissected into a right and a left part of which the right part was analyzed for neurochemicals with HPLC and the left part was analyzed for gene expression. The limbic forebrain, the striatum, the frontal cortex, the hippocampus and the remaining hemispheral parts of each rat were dissected and frozen. Each brain part was subsequently analyzed with respect to its content of monoamines and their metabolites.
The monoamine transmitter substances (NA (noradrenaline), DA (dopamine), 5-HT (serotonin)) as well as one corresponding acid, (DOPAC (3,4-dihydroxyphenylacetic acid), were quantified in brain tissue homogenates by HPLC separations and electrochemical detection.
The analytical method is based on two chromatographic separations dedicated for amines or acids. Two chromatographic systems share a common auto injector with a 10-port valve and two sample loops for simultaneous injection on the two systems. Both systems are equipped with a reverse phase column (Luna C18 (2), dp 3 μm, 50*2 mm i.d., Phenomenex) and electrochemical detection is accomplished at two potentials on glassy carbon electrodes (MF-1000, Bioanalytical Systems, Inc.). The column effluent is passed via a T-connection to the detection cell or to a waste outlet. This is accomplished by two solenoid valves, which block either the waste or detector outlet. By preventing the chromatographic front from reaching the detector, better detection conditions are achieved. The aqueous mobile phase (0.4 ml/min) for the acid system contains citric acid 14 mM, sodium citrate 10 mM, Methanol 15% (v/v) and EDTA 0.1 mM. Detection potentials relative to Ag/AgCl reference are 0.45 and 0.60V. […] Detection potentials relative to Ag/AgCl reference are 0.45 and 0.65V.
Each compound or saline solution (control) indicated in the above table was administered subcutaneously (s.c.) 65 min before sacrificing the animals. DOPAC results are presented as percent of control means±SEM (standard error of the mean). Statistical significance was assessed using Student's t-test (2 tailed) vs controls. * denotes p<0.05, ** p<0.01, *** p<0.001, n=5.

[1] = 50 μmol/kg s.c., striatum, n=1-3
[2] = 50 μmol/kg s.c., frontal cortex, n=1-3, read-out: 5-HT FC, maximum effect compared to baseline ± SEM
[3] = 50 μmol/kg s.c., striatum, n=1-3, read-out: 5-HT Stri, maximum effect compared to baseline ± SEM
[4] = 50 μmol/kg s.c., striatum, n=1-3, read-out: DA Stri, maximum effect compared to baseline ± SEM
[5] = 50 μmol/kg s.c., frontal cortex, n=1-3, read-out: DA FC, maximum effect compared to baseline ± SEM

SMILES | NA Stri, maximum effect compared to baseline ± SEM (NA, DA and 5-HT; [1]) | response vs control in vivo at 50 µmol/kg (NA, DA and 5-HT; [2]) [%] | response vs control in vivo at 50 µmol/kg (NA, DA and 5-HT; [3]) [%] | response vs control in vivo at 50 µmol/kg (NA, DA and 5-HT; [4]) [%] | DOPAC cortex ± SEM (DOPAC) | DOPAC striatum ± SEM (DOPAC) | response vs control in vivo at 50 µmol/kg (NA, DA and 5-HT; [5]) [%] | response vs control in vivo at 50 µmol/kg (NA, DA and 5-HT; 50 μmol/kg s.c., frontal cortex, n=1-3, read-out: NA FC, maximum effect compared to baseline ± SEM) [%] | NA Stri, maximum effect compared to baseline ± SEM (NA, DA and 5-HT; Dose 16.7 μmol/kg s.c, striatum) | response vs control in vivo at 16.7 µmol/kg (NA, DA and 5-HT; Dose 16.7 μmol/kg s.c, frontal cortex, read-out: 5-HT FC, maximum effect compared to baseline ± SEM) [%] | response vs control in vivo at 16.7 µmol/kg (NA, DA and 5-HT; Dose 16.7 μmol/kg s.c, frontal cortex, read-out: DA FC, maximum effect compared to baseline ± SEM) [%] | response vs control in vivo at 16.7 µmol/kg (NA, DA and 5-HT; Dose 16.7 μmol/kg s.c, frontal cortex, read-out: NA FC, maximum effect compared to baseline ± SEM) [%] | response vs control in vivo at 16.7 µmol/kg (NA, DA and 5-HT; Dose 16.7 μmol/kg s.c, striatum, read-out: 5-HT Stri, maximum effect compared to baseline ± SEM) [%] | response vs control in vivo at 16.7 µmol/kg (NA, DA and 5-HT; Dose 16.7 μmol/kg s.c, striatum, read-out: DA Stri, maximum effect compared to baseline ± SEM) [%]
Fc1cccc(OC2CNC2)c1F [Example 1A, 3-(2,3-difluorophenoxy)azetidine hydrochloric acid salt] | 155 ± 33^a % of control | 207 ± 49 | 217 ± 21 | 155 ± 9.6 | 300 ± 26*** % of control means | 53 ± 2*** % of control means |  |  |  |  |  |  |  | 
Fc1cc(F)c(F)c(OC2CNC2)c1 [Example 2, 3-(2,3,5-trifluorophenoxy)azetidine hydrochloric acid salt] |  | 160 ± 32 | 202 ± 5.6 | 134 ± 13 | 121 ± 5.6 % of control means | 96 ± 4 % of control means | 600 ± 5.8 |  |  |  |  |  |  | 
Fc1cc(F)c(F)c(OC2CNC2)c1F [Example 3, 3-(2,3,5,6-tetrafluorophenoxy)-azetidine hydrochloric acid salt] |  | 205 ± 78 | 197 ± 80 | 196 ± 22 | 201 ± 11*** % of control means | 158 ± 3.4*** % of control means | 735 ± 18 |  |  |  |  |  |  | 
Fc1ccc(F)c(OC2CNC2)c1F [Example 20, 3-(2,3,6-trifluorophenoxy)azetidine hydrochloric acid salt] |  | 164 ± 36 | 141 | 146 ± 4 |  |  | 441 ± 35 |  |  |  |  |  |  | 
CCN1CC(Oc2c(F)c(F)cc(F)c2F)C1 [Example 39, 1-ethyl-3-(2,3,5,6-tetrafluorophenoxy)azetidine hydrochloric acid salt] | 334 ± 10^a % of control | 256 | 281 | 218 ± 18 | 191 ± 18** % of control means | 247 ± 13*** % of control means | 359 | 414 |  |  |  |  |  | 
Fc1cc(F)cc(OC2CNC2)c1.O=C(O)C(O)C(O)C(=O)O [Example 52B, 3-(3,5-difluorophenoxy)azetidine (+)-tartaric acid salt] |  |  |  |  | 229 ± 4.6*** % of control means | 72 ± 1.7*** % of control means |  |  | 151^b % of control | 213 ± 86 | 638 ± 106 | 968 ± 176 | 146 ± 18 | 120 ± 6
Fc1cc(F)cc(OC2CNC2)c1 [Example 52C, 3-(3,5-difluorophenoxy)azetidine hydrochloric acid salt] | 196 ± 26^a % of control | 424 ± 119 |  | 147 ± 6 |  |  |  |  |  |  |  |  |  | 
Clc1ccc(OC2CNC2)cc1Cl [Reference Compound, 3-(3,4-dichlorophenoxy)azetidine hydrochloric acid salt, reference compound] | 987 ± 425 % of control | 682 ± 14 |  | 136 ± 48 | 86 ± 5.6 % of control means | 89 ± 2.5 % of control means |  |  |  |  |  |  |  | 
